In the supplement of paper PMC10307832:

How the values were obtained:
Experiment in all cases: relative viability (nuclei count vs DMSO), 5 days (fraction); higher = more cells survive
[1] = tested on: NCI-H1993
Summary of the method: (§1)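 After 5 days of treatment, lung cancer cells in 1536-well plates were fixed and stained in a single step (final 0.05% Triton X-100, 1% formaldehyde, 1 ug/ml Hoechst) and their nuclei counted on 4× images. Treatment had been applied by pin tool the day after seeding as one drug alone or as a fixed anchor-drug dose with five library-drug doses (not always all listed) in √10 steps. Relative viability is the nuclei count of treated wells divided by that of vehicle wells, and values are medians of duplicate plates.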

[2] = tested on: NCI-H2023
Summary of the method: as §1

[3] = tested on: NCI-H2085
Summary of the method: as §1

[4] = tested on: NCI-H2170
Summary of the method: as §1

[5] = tested on: NCI-H2347
Summary of the method: as §1

[6] = tested on: NCI-H2405
Summary of the method: as §1

[7] = tested on: NCI-H3122
Summary of the method: as §1

[8] = tested on: NCI-H441
Summary of the method: as §1

[9] = tested on: NCI-H520
Summary of the method: as §1

[10] = tested on: NCI-H647
Summary of the method: as §1

[11] = tested on: PC-14
Summary of the method: as §1

[12] = tested on: RERF-LC-KJ
Summary of the method: as §1

Structure (SMILES): COc1cc(N2CCC(C(N)=O)CC2)ccc1Nc1nc(N)c(Cl)c(Nc2ccccc2S(=O)(=O)C(C)C)n1 [HG-5-88-01] + CS(=O)(=O)N1CCN(Cc2cc3nc(-c4cccc5[nH]ncc45)nc(N4CCOCC4)c3s2)CC1 [Pictilisib] (partner 1 µM)
- relative viability ([1]; first compound 1.265 µM): 1.04
- relative viability ([1]; first compound 4 µM): 0.873
- relative viability ([2]; first compound 0.04 µM): 0.222
- relative viability ([2]; first compound 0.1265 µM): 0.245
- relative viability ([2]; first compound 0.4 µM): 0.16
- relative viability ([2]; first compound 1.265 µM): 0.159
- relative viability ([2]; first compound 4 µM): 0.171
- relative viability ([3]; first compound 0.04 µM): 0.478
- relative viability ([3]; first compound 0.1265 µM): 0.457
- relative viability ([3]; first compound 0.4 µM): 0.525
- relative viability ([3]; first compound 1.265 µM): 0.414
- relative viability ([3]; first compound 4 µM): 0.442
- relative viability ([4]; first compound 0.04 µM): 0.269
- relative viability ([4]; first compound 0.1265 µM): 0.33
- relative viability ([4]; first compound 0.4 µM): 0.28
- relative viability ([4]; first compound 1.265 µM): 0.26
- relative viability ([4]; first compound 4 µM): 0.261
- relative viability ([5]; first compound 0.04 µM): 0.603
- relative viability ([5]; first compound 0.1265 µM): 0.645
- relative viability ([5]; first compound 0.4 µM): 0.683
- relative viability ([5]; first compound 4 µM): 0.471
- relative viability ([6]; first compound 0.04 µM): 0.286
- relative viability ([6]; first compound 0.1265 µM): 0.465
- relative viability ([6]; first compound 0.4 µM): 0.363
- relative viability ([6]; first compound 1.265 µM): 0.329
- relative viability ([6]; first compound 4 µM): 0.451
- relative viability ([7]; first compound 0.04 µM): 0.252
- relative viability ([7]; first compound 0.1265 µM): 0.174
- relative viability ([7]; first compound 0.4 µM): 0.2
- relative viability ([7]; first compound 1.265 µM): 0.172
- relative viability ([7]; first compound 4 µM): 0.173
- relative viability ([8]; first compound 0.04 µM): 0.435
- relative viability ([8]; first compound 0.1265 µM): 0.409
- relative viability ([8]; first compound 0.4 µM): 0.494
- relative viability ([8]; first compound 1.265 µM): 0.352
- relative viability ([8]; first compound 4 µM): 0.536
- relative viability ([9]; first compound 0.04 µM): 0.366
- relative viability ([9]; first compound 0.1265 µM): 0.273
- relative viability ([9]; first compound 0.4 µM): 0.235
- relative viability ([9]; first compound 1.265 µM): 0.299
- relative viability ([9]; first compound 4 µM): 0.36
- relative viability ([10]; first compound 0.04 µM): 0.342
- relative viability ([10]; first compound 0.1265 µM): 0.407
- relative viability ([10]; first compound 0.4 µM): 0.453
- relative viability ([10]; first compound 1.265 µM): 0.371
- relative viability ([10]; first compound 4 µM): 0.443
- relative viability ([11]; first compound 0.04 µM): 0.79
- relative viability ([11]; first compound 0.1265 µM): 0.862
- relative viability ([11]; first compound 0.4 µM): 0.658
- relative viability ([11]; first compound 1.265 µM): 0.168
- relative viability ([11]; first compound 4 µM): 0.108
- relative viability ([12]; first compound 0.04 µM): 0.588
- relative viability ([12]; first compound 0.1265 µM): 0.714
- relative viability ([12]; first compound 0.4 µM): 0.498
- relative viability ([12]; first compound 1.265 µM): 0.481
- relative viability ([12]; first compound 4 µM): 0.412
